From US8163779B2, “Glucokinase activators” (Takeda San Diego, Inc., priority 2006, dated 2012)

Biological target: T1, glucokinase (GK) (Homo sapiens, UniProt P35557)
T1 construct: I.D. No. 1 corresponds to residues 12-465 of glucokinase; made in house; host or cells: E. coli DH10b-T1r
T1 sequence (P35557 with tags, fused parts or gaps isoform P35557-2): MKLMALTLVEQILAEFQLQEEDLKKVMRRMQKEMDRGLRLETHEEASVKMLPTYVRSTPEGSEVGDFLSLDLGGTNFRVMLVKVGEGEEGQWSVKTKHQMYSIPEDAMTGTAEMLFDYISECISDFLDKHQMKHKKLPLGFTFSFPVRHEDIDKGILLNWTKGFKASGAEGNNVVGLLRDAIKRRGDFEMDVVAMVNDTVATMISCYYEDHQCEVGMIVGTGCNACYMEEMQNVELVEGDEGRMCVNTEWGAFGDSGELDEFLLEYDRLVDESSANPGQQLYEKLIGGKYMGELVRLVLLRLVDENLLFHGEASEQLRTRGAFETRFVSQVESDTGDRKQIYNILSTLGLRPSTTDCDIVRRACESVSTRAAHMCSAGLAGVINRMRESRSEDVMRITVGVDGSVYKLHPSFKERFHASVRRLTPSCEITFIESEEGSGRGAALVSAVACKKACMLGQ
Assay: enzymatic glucokinase activity assay (ATP consumption, KinaseGlo luminescence)
Assay type: biochemical
Conditions: recombinant GK residues 12-465; 5 μM ATP, 5 mM Glucose; Kact = concentration that displays 50% of the maximal increase in GK activity; read-out: pKact
In short: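 Activation was scored as ATP consumption, quantified by KinaseGlo luciferase luminescence after a 60 min room-temperature reaction. Reactions contained E. coli-expressed, purified GK, 5 μM ATP, 5 mM glucose, 10 mM MgCl2, 0.01% Brij35 and 2% DMSO at pH 7.2; pKact was fitted non-linearly.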

| SMILES | EC50 [µM] |
| --- | --- |
| O=C(Nc1cnccn1)[C@@H](CC1CCOCC1)n1ccc(S(=O)(=O)C2CC2)cc1=O [Example 69, (R)-2-(4-(cyclopropylsulfonyl)-2-oxopyridin-1(2H)-yl)-N-(pyrazin-2-yl)-3-(tetrahydro-2H-pyran-4-yl)propanamide] | > 15.8 |
| Cc1cc(-c2ccccc2Cl)cc(=O)n1[C@@H](CC1CCCCC1)C(=O)Nc1nccs1 [Example 91, (S)-2-(4-(2-chlorophenyl)-6-methyl-2-oxopyridin-1(2H)-yl)-3-cyclohexyl-N-(thiazol-2-yl)propanamide] | > 15.8 |
| Cc1cc(Br)cc(=O)n1[C@@H](CC1CCCCC1)C(=O)Nc1nccs1 [Example 61, (S)-2-(4-bromo-6-methyl-2-oxopyridin-1(2H)-yl)-3-cyclohexyl-N-(thiazol-2-yl)propanamide] | > 15.8 |
| COc1ccc2nc(NC(=O)C(CC3CCOCC3)n3ccc(N4CC[C@H](O)C4)cc3=O)sc2n1 (stereo partly drawn) [Example 125, 2-(4-((S)-3-hydroxypyrrolidin-1-yl)-2-oxopyridin-1(2H)-yl)-N-(5-methoxythiazolo[5,4-b]pyridin-2-yl)-3-(tetrahydro-2H-pyran-4-yl)propanamide] | > 15.8 |
| Cc1cc(S(=O)(=O)c2cccc(F)c2)cc(=O)n1C(CC1CCOCC1)C(=O)Nc1ncc(F)s1 (stereo not shown) [Example 159, 2-(4-(3-fluorophenylsulfonyl)-6-methyl-2-oxopyridin-1(2H)-yl)-N-(5-fluorothiazol-2-yl)-3-(tetrahydro-2H-pyran-4-yl)propanamide] | 1.58 to 15.8 |
| COc1ccc2nc(NC(=O)[C@H](CC3CCOCC3)n3c(C)cc(S(=O)(=O)c4ccoc4C)cc3=O)sc2n1 [Example 62, (S)-N-(5-methoxythiazolo[5,4-b]pyridin-2-yl)-2-(6-methyl-4-(2-methylfuran-3-ylsulfonyl)-2-oxopyridin-1(2H)-yl)-3-(tetrahydro-2H-pyran-4-yl)propanamide] | 1.58 to 15.8 |
| Cc1cc(S(=O)(=O)C2CC2)cc(=O)n1[C@@H](CC1CCCC1)C(=O)Nc1ccc(C(N)=O)cn1 [Example 180, (S)-6-(3-cyclopentyl-2-(4-(cyclopropylsulfonyl)-6-methyl-2-oxopyridin-1(2H)-yl)propanamido)nicotinamide] | 1.58 to 15.8 |
| Cc1cc(S(=O)(=O)Cc2cccs2)cc(=O)n1C(CC1CCCCC1)C(=O)Nc1ncc(Cl)s1 (stereo not shown) [Example 80, N-(5-chlorothiazol-2-yl)-3-cyclohexyl-2-(6-methyl-2-oxo-4-(thiophen-2-ylmethylsulfonyl)pyridin-1(2H)-yl)propanamide] | 1.58 to 15.8 |
| O=C(Nc1ncc(Cl)s1)[C@H](CC1CCOCC1)n1ccc(S(=O)(=O)C2CC2)cc1=O [Example 30, (S)-N-(5-chlorothiazol-2-yl)-2-(4-(cyclopropylsulfonyl)-2-oxopyridin-1(2H)-yl)-3-(tetrahydro-2H-pyran-4-yl)propanamide] | < 1.58 |
| O=C(Nc1ncc(Cl)s1)[C@H](CC1CCOCC1)n1ccc(S(=O)(=O)CC(F)(F)F)cc1=O [Example 149, (S)-N-(5-chlorothiazol-2-yl)-2-(2-oxo-4-(2,2,2-trifluoroethylsulfonyl)pyridin-1(2H)-yl)-3-(tetrahydro-2H-pyran-4-yl)propanamide] | 1.58 to 15.8 |
| Cc1cc(S(=O)(=O)C2CCCC2)cc(=O)n1[C@H](CC1CCOCC1)C(=O)Nc1ccc(F)cn1 [Example 164, (R)-2-(4-(cyclopentylsulfonyl)-6-methyl-2-oxopyridin-1(2H)-yl)-N-(5-fluoropyridin-2-yl)-3-(tetrahydro-2H-pyran-4-yl)propanamide] | > 15.8 |
| Cc1cc(S(=O)(=O)C2CCCC2)cc(=O)n1C(Cc1ccco1)C(=O)Nc1nccs1 (stereo not shown) [Example 21, 2-(4-(cyclopentylsulfonyl)-6-methyl-2-oxopyridin-1(2H)-yl)-3-(furan-2-yl)-N-(thiazol-2-yl)propanamide] | > 15.8 |
| Cc1cc(-c2ccccc2)cc(=O)n1[C@@H](CC1CCCCC1)C(=O)Nc1nccs1 [Example 90, (S)-3-cyclohexyl-2-(6-methyl-2-oxo-4-phenylpyridin-1(2H)-yl)-N-(thiazol-2-yl)propanamide] | > 15.8 |
